Broadly, the inhibition is how much of the control response was suppressed.

In patent US12459938B2, “ORAI channel inhibitors” (Beth Israel Deaconess Medical Center, Inc., priority 2019, dated 2025) one finds activity and inhibition data, which are given here for 34 molecules.

The first experiment concerns Rat mast cells (RBL-2H3 cells). Put plainly: Calcium influx assay (Fluo-4NW, thapsigargin store depletion, Ca2+ re-addition). The following applies: 1 μM compound, control = DMSO, read-out: Fluo-4NW fluorescence (Ca2+ influx), % of control. The experiment is classed as cell-based. The protocol: Rat mast cells (RBL-2H3 cells) (ATCC) were seeded in 96-well plate at 4×10^4 cells per well in DMEM-supplemented with 2% FBS and allowed to adhere overnight. Culture medium was then replaced with 50 μl of Ca^2+-free Tyrode buffer to load Ca^2+-probe Fluo-4NW (Molecular Probe, Thermo Fisher, MA, USA) per manufacturer instruction. A testing compound at indicated concentrations was supplied during the probe loading from the beginning. Cells were incubated in the presence or absence of a testing compound for 60 minutes in the Ca^2+-free medium at 37° C. During the last 5 minutes of incubation, cells were treated with 1 μM thapsigargin (Tg, Sigma Aldrich) to deplete [Ca^2+]ER, 20 mM CaCl2 in normal saline solution was supplemented back to the [Ca^2+]ER-depleted cells to have 2 mM as final concentration. Culture medium was removed 1 minute after Ca^2+ reloading, and changes in Fluo-4NW fluorescence (RFU) were recorded with the multi-mode plate reader (FilterMax F5, Molecular Devices/Thermo Fisher Scientific, MA, USA) at an excitation wavelength of 485 nm and an emission wavelength of 535 nm. The inhibitory activity of the tested compound was presented as % of control (DMSO).
As to `O=C(Nc1c(F)cccc1F)c1cn(CC2CC2)c2ccccc12` [Example 1, 1-(cyclopropylmethyl)-N-(2,6-difluorophenyl)-1H-indole-3-carboxamide], the activity at 1 µM is 75%.

The same experiment, now with this note: 10 μM compound, control = DMSO, read-out: Fluo-4NW fluorescence (Ca2+ influx), % of control.
Regarding `O=C(Nc1c(F)cccc1F)c1cn(CC2CC2)c2ccccc12` [Example 1, 1-(cyclopropylmethyl)-N-(2,6-difluorophenyl)-1H-indole-3-carboxamide], the activity at 10 µM was 42%.

The test system of a further experiment is NFAT. Nature of the experiment: NFAT activation assay (luciferase reporter, PMA and ionomycin). The experiment is classed as cell-based. As to conditions: Homo sapiens; 10 μM compound; Jurkat cells; 15 nM PMA and 0.5 μM ionomycin; 18 hours; read-out: Activity 10 μM (% inhibition of NFAT luciferase luminescence). The protocol:
Jurkat cells (BPS Bioscience catalog No. 60621) were seeded at 40,000 cells per well into white clear-bottom 96-well microplate in 80 μl of growth medium without Geneticin. 10 μl of testing compounds (final 10 μM) were added to each well and preincubated with cells for half an hour. Then 10 μl of PMA and ionomycin mixture were added to each well to make the final concentration of 15 nM PMA and 0.5 μM ionomycin. Cells were incubated at 37° C. and 5% CO2 incubator for 18 hours. After treatment, cells were lysed and the luciferase assay was performed using ONE-Step luciferase assay system by adding 100 μl of One-Step Luciferase reagent (BPS Bioscience catalog No. 60690) per well followed by rocking at room temperature for about 30 minutes. Luminescence was measured using a luminometer (BioTek Synergym™ 2 microplate reader). The percent luminescence in the presence of each compound was calculated according to the following equation: % Luminescence=(L−Lb)/(Lt−Lb), where L=the luminescence intensity in the presence of the compound, Lb=the luminescence intensity in the absence of cells, and Lt=the luminescence intensity in the absence of the compound. The percent inhibition was calculated by: % inhibition=100−(% Luminescence).
Background: A reporter such as luciferase makes a cellular process visible.
For the molecule `O=C(Nc1c(F)cccc1F)c1cn(CC2CC2)c2ccccc12` [Example 1, 1-(cyclopropylmethyl)-N-(2,6-difluorophenyl)-1H-indole-3-carboxamide], the inhibition at 10 µM was in the range of 51 to 75%.
For the molecule `O=C(Nc1ccncc1F)c1cn(CC2CC2)c2ncccc12` [Example 5, 1-(cycloproylmethyl)-N-(3-fluoropyridin-4-yl)-1H-pyrrolo[2,3-b]pyridine-3-carboxamide], the inhibition at 10 µM was in the range of 26 to 50%.
On the same count and under the same terms, for `Cc1cnccc1NC(=O)c1nn(CC2CC2)c2ccccc12` [Example 6, 1-(cyclopropylmethyl)-N-(3-methylpyridin-4-yl)-1H-indazole-3-carboxamide] the value was above 75%; for `O=C(Nc1ccncc1F)c1nn(CC2CCC2)c2ccccc12` [Example 10, 1-(cyclobutylmethyl)-N-(3-fluoropyridin-4-yl)-1H-indazole-3-carboxamide], above 75%; for `Cc1cnccc1NC(=O)c1nn(CC2CCC2)c2ccccc12` [Example 11, 1-(cyclobutylmethyl)-N-(3-methylpyridin-4-yl)-1H-indazole-3-carboxamide], above 75%.
In the case of `O=C(Nc1ccncc1F)c1cn(CC2COC2)c2ccccc12` [Example 12, N-(3-fluoropyridin-4-yl)-1-(oxetan-3-ylmethyl)-1H-indole-3-carboxamide], the inhibition at 10 µM is below 25%.
Same read-out and setting: for `CN(C(=O)c1cn(CC2CC2)c2ccccc12)c1ccncc1F` [Example 14, 1-(cyclopropylmethyl)-N-(3-fluoropyridin-4-yl)-N-methyl-1H-indole-3-carboxamide] the value was below 25%; for `Fc1cnccc1NCc1cn(CC2CC2)c2ccccc12` [Example 15, N-((1-(cyclopropylmethyl)-1H-indol-3-yl)methyl)-3-fluoropyridin-4-amine], 26 to 50%; for `O=C(Nc1ccncc1F)c1cn(CC2CC2)c2cnccc12` [Example 16, 1-(cycloproylmethyl)-N-(3-fluoropyridin-4-yl)-1H-pyrrolo[2,3-c]pyridine-3-carboxamide], below 25%.
Turning to `O=C(Nc1ccncc1F)c1cn(CC2CC2)c2ccncc12` [Example 17, 1-(cyclopropylmethyl)-N-(3-fluoropyridin-4-yl)-1H-pyrrolo[3,2-c]pyridine-3-carboxamide], the inhibition at 10 µM was below 25%.
Take `O=C(Nc1ccncc1F)c1cn(CC2CC2)c2cccnc12` [Example 18, 1-(cycloproylmethyl)-N-(3-fluoropyridin-4-yl)-1H-pyrrolo[3,2-b]pyridine-3-carboxamide]: the inhibition at 10 µM fell in the range of 26 to 50%.
In the case of `Cc1cnccc1NC(=O)c1ccn(CC2CC2)n1` [Example 19, 1-(cyclopropylmethyl)-N-(3-methylpyridin-4-yl)-1H-pyrazole-3-carboxamide], the inhibition at 10 µM lay in the range of 51 to 75%.
As to `O=C(Nc1ccncc1F)c1ccn(CC2CC2)n1` [Example 20, 1-(cyclopropylmethyl)-N-(3-fluoropyridin-4-yl)-1H-pyrazole-3-carboxamide], the inhibition at 10 µM was in the range of 51 to 75%.
In the case of `O=C(Nc1c(F)cccc1F)c1ccn(CC2CC2)n1` [Example 21, 1-(cyclopropylmethyl)-N-(2,6-difluorophenyl)-1H-pyrazole-3-carboxamide], the inhibition at 10 µM is below 25%.
In the case of `O=C(Nc1c(F)cncc1F)c1ccn(CC2CC2)n1` [Example 22, 1-(cyclopropylmethyl)-N-(3,5-difluoropyridin-4-yl)-1H-pyrazole-3-carboxamide], the inhibition at 10 µM is below 25%.
For the molecule `O=C(Nc1ccncc1F)c1nn(CC2CC2)c2ccccc12` [Example 23, 1-(cyclopropylmethyl)-N-(3-fluoropyridin-4-yl)-1H-indazole-3-carboxamide], the inhibition at 10 µM was above 75%.
Turning to `O=C(Nc1ccncc1F)c1nn(CC2CC2)c2c1CCCC2` [Example 25, 1-(cyclopropylmethyl)-N-(3-fluoropyridin-4-yl)-4,5,6,7-tetrahydro-1H-indazole-3-carboxamide], the inhibition at 10 µM was above 75%.
In the case of `O=C(Nc1c(F)cccc1F)c1nn(CC2CC2)c2c1CCCC2` [Example 26, 1-(cyclopropylmethyl)-N-(2,6-difluorophenyl)-4,5,6,7-tetrahydro-1H-indazole-3-carboxamide], the inhibition at 10 µM lay in the range of 51 to 75%.
As to `O=C(Nc1ccn(CC2CC2)n1)c1c(F)cncc1F` [Example 27, N-(1-(cyclopropylmethyl)-1H-pyrazol-3-yl)-3,5-difluoroisonicotinamide], the inhibition at 10 µM fell in the range of 26 to 50%.
As for `O=C(Nc1ccn(CC2CC2)n1)c1ccncc1F` [Example 28, N-(1-(cyclopropylmethyl)-1H-pyrazol-3-yl)-3-fluoroisonicotinamide], the inhibition at 10 µM is below 25%.
Take `Cc1cnccc1C(=O)Nc1ccn(CC2CC2)n1` [Example 30, N-[1-(cyclopropylmethyl)-1H-pyrazol-3-yl]-3-methylpyridine-4-carboxamide]: the inhibition at 10 µM is below 25%.
Take `O=C(Nc1ccncc1F)c1nn(CC2CC2)c2ncccc12` [Example 31, 1-(cyclopropylmethyl)-N-(3-fluoropyridin-4-yl)-1H-pyrazolo[3,4-b]pyridine-3-carboxamide]: the inhibition at 10 µM was in the range of 51 to 75%.
Regarding `O=C(Nc1ccncc1F)c1nn(CC2CC2)c2c1CCC2` [Example 32, 1-(cycloproylmethyl)-N-(3-fluoropyridin-4-yl)-1,4,5,6-tetrahydrocyclopenta[c]pyrazole-3-carboxamide], the inhibition at 10 µM is above 75%.
Turning to `O=C(Nc1ccncc1F)c1nn(CC2CCC2)c2c1CCCC2` [Example 33, 1-(cyclobutylmethyl)-N-(3-fluoropyridin-4-yl)-4,5,6,7-tetrahydro-1H-indazole-3-carboxamide], the inhibition at 10 µM is above 75%.
Regarding `Cc1ccc2c(c1)c(C(=O)Nc1ccncc1F)nn2CC1CC1` [Example 34, 1-(cyclopropylmethyl)-N-(3-fluoropyridin-4-yl)-5-methyl-1H-indazole-3-carboxamide], the inhibition at 10 µM is above 75%.
For `O=C(Nc1ccncc1F)c1nn(CC2CC2)c2cc(Cl)ccc12` [Example 35, 6-chloro-1-(cyclopropylmethyl)-N-(3-fluoropyridin-4-yl)-1H-indazole-3-carboxamide], the inhibition at 10 µM is 51 to 75%.
For the molecule `O=C(Nc1ccncc1F)c1nn(CC2CC2)c2ccc(Br)cc12` [Example 36, 1-(cyclopropylmethyl)-5-bromo-N-(3-fluoropyridin-4-yl)-1H-indazole-3-carboxamide], the inhibition at 10 µM fell in the range of 51 to 75%.
Still for that read-out and setting: the figure for `O=C(Nc1ccncc1F)c1nn(CC2CC2)c2ccc(F)cc12` [Example 37, 1-(cyclopropylmethyl)-5-fluoro-N-(3-fluoropyridin-4-yl)-1H-indazole-3-carboxamide] is above 75%; for `O=C(Nc1ccncc1F)c1nn(CC2CC2)c2cc(F)ccc12` [Example 38, 1-(cyclopropylmethyl)-6-fluoro-N-(3-fluoropyridin-4-yl)-1H-indazole-3-carboxamide] it is above 75%; for `O=C(Nc1ccncc1F)c1nn(CC2CC2)c2c(F)cccc12` [Example 39, 1-(cyclopropylmethyl)-7-fluoro-N-(3-fluoropyridin-4-yl)-1H-indazole-3-carboxamide] it is 51 to 75%.
On to `Cc1cnccc1NC(=O)c1nn(CC2CCC2)c2c1CCCC2` [Example 40, 1-(cyclobutylmethyl)-N-(3-methylpyridin-4-yl)-4,5,6,7-tetrahydro-1H-indazole-3-carboxamide], for which the inhibition at 10 µM was above 75%.
In the case of `Cc1cnccc1NC(=O)c1nn(CC2CC2)c2c1CCC2` [Example 41, 1-(cycloproylmethyl)-N-(3-methylpyridin-4-yl)-1,4,5,6-tetrahydrocyclopenta[c]pyrazole-3-carboxamide], the inhibition at 10 µM is 51 to 75%.
Same read-out and setting: the figure for `Cc1cnccc1NC(=O)c1nn(CC2CC2)c2c1CCCC2` [Example 42, 1-(cyclopropylmethyl)-N-(3-methylpyridin-4-yl)-4,5,6,7-tetrahydro-1H-indazole-3-carboxamide] is above 75%.
As for `Cc1c(C(=O)Nc2ccncc2F)c2ccccc2n1CC1CC1` [Example 43, 1-(cyclopropylmethyl)-N-(3-fluoropyridin-4-yl)-2-methyl-1H-indole-3-carboxamide], the inhibition at 10 µM is above 75%.
